This note sets out measurements from US5972975A, “Substituted 2-aminopyridines as inhibitors of nitric oxide synthase” (priority 1997, dated 1999).

Structures can show the parent of a compound that is named as a salt. Where two headings read alike, the source gives them in different places.

The target in one experiment is ncNOS (Homo sapiens, UniProt P29475). The experiment in a line: biochemical. To be noted: ncNOS, 1 μM L-Arg, pH 7.5, room temperature, 30 minutes, read-out: ncNOS (IC50).
The next experiment concerns the target iNOS (Homo sapiens, UniProt P35228). The experiment is described as follows: NOS activity: L-[3H]citrulline formation from L-[3H]arginine, iNOS. To be noted: iNOS, 1 μM L-Arg, pH 7.5, room temperature, 30 minutes, read-out: iNOS (IC50). Format: biochemical. The procedure: (§1) NOS activity is measured as the formation of L-[2,3,4,5-^3 H]Citrullinefrom L-[2,3,4,5-^3 H]Arginine. The incubation buffer (100 μL) contained; 100 mM TES, pH 7.5, 5 μM FAD, 5 μM FMN, 10 μM BH4, 0.5 mM NADPH, 0.5 mM DTT, 0.5 mg/mL BSA, 2 mM CaCl2, 10 μg/mL calmodulin (bovine), 1 μM L-Arg, 0.2 μCi L-[2,3,4,5-^3 H]Arg, and the inhibitor in aqueous DMSO (max. 5%). The reaction is initiated by addition of enzyme. Incubations are performed at room temperature for 30 minutes and stopped by the addition of an equal volume of quenching buffer consisting of 200 mM sodium citrate, pH 2.2, 0.02% sodium azide. Reaction products are separated by passing through a cation exchange resin and quantitated as cpm by scintillation counting.

The target of another experiment is ecNOS (Homo sapiens, UniProt P29474). The experiment in a line: NOS activity: L-[3H]citrulline formation from L-[3H]arginine, ecNOS. Format: biochemical. To be noted: ecNOS, 1 μM L-Arg, pH 7.5, room temperature, 30 minutes, read-out: ecNOS (IC50). The procedure:
as §1

ncNOS, sequence (P29475 whole entry): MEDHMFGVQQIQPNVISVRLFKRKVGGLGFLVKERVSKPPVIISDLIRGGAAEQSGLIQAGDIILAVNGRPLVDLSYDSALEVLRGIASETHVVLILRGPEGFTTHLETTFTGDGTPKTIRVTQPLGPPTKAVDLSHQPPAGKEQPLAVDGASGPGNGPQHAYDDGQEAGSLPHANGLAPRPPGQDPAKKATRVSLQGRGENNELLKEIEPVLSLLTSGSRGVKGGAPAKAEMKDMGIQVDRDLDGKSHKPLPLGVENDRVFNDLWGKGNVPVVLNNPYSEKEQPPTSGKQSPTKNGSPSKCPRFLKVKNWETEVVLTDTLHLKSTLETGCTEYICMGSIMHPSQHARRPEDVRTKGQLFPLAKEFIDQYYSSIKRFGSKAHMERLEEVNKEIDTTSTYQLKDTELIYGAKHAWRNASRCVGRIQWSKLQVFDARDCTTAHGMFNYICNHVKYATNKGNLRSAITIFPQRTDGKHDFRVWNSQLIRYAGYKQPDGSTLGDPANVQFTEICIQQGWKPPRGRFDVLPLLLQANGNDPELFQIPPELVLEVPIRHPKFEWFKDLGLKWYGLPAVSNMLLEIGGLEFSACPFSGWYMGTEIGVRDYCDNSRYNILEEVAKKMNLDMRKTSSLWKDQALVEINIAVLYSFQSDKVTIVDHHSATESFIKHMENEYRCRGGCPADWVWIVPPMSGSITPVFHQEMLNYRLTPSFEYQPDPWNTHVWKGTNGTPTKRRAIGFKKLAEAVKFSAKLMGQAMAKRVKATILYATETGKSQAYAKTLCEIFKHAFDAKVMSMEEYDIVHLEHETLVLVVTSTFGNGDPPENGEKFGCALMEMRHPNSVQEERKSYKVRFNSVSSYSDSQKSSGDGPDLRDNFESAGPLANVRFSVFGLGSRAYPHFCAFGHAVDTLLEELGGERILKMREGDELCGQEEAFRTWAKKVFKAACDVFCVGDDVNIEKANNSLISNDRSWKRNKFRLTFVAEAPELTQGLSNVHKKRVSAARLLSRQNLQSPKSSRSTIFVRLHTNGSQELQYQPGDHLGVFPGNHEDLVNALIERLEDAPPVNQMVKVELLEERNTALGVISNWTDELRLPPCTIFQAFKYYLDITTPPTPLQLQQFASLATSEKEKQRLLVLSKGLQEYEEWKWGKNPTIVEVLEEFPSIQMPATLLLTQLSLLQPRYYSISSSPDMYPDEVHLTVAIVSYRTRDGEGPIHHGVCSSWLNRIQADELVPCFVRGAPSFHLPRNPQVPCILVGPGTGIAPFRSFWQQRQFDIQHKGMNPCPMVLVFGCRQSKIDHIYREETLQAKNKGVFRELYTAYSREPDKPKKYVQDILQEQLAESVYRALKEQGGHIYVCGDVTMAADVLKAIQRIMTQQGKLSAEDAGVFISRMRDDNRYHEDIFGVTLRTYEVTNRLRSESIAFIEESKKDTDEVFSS

As usually defined, the IC50 is the midpoint of a concentration-inhibition curve. As to `COCc1c(C)ccnc1N` [Example 25, 2-Amino-3-methoxymethyl-4-picoline dihydrochloride], the results for the IC50 at ncNOS (Table 2), on iNOS (Table 2) and on ecNOS (Table 2) were less than 50 µM, less than 10 µM and less than 50 µM, respectively.
In the case of `Cc1cc(N)nc(CCC(C)C)c1` [Example 71, 2-Amino-4-methyl-6-(3-methylbutyl)pyridine], the figures for the IC50 on ncNOS (Table 2), at iNOS (Table 2) and on ecNOS (Table 2) were less than 1 µM, less than 1 µM and less than 10 µM, respectively.
With `Cc1ccnc(N)c1N(C)C` [Example 27, 2-Amino-3-dimethylamino-4-picoline trihydrochloride], the values for the IC50 at ncNOS (Table 2), at iNOS (Table 2) and at ecNOS (Table 2) were less than 50 µM, less than 50 µM and greater than 50 µM, respectively.
`CCc1cccc(N)n1` [Example 52, 2-Amino-6-ethylpyridine]: the IC50 on ncNOS (Table 2), on iNOS (Table 2) and at ecNOS (Table 2) was less than 1 µM throughout.
For `Cc1cc(N)nc(CC(C)C)c1` [Example 72, 2-Amino-4-methyl-6-(2-methylpropyl)pyridine], the half-inhibitory concentration (IC50) at ncNOS (Table 2), at iNOS (Table 2) and at ecNOS (Table 2) was less than 1 µM throughout.
`Cc1cnc(N)cc1C` [Example 49, 2-Amino-4,5-dimethylpyridine hydrochloride]: the IC50 on ncNOS (Table 2), on iNOS (Table 2) and on ecNOS (Table 2) was less than 1 µM throughout.
Take `Nc1cc(Cc2ccccc2)ccn1` [Example 12]: at iNOS (Table 1), the IC50 is greater than 50 µM.
Take `Nc1cccnc1N` [Example 10]: the IC50 was less than 10 µM on iNOS (Table 1) and 1.9 µM on ecNOS (Table 1).
Regarding `Cc1cc(N)nc2c1CCCC2` [Example 63, 2-Amino-4-methyl-5,6,7,8-tetrahydroquinoline], the values for the concentration for half-maximal inhibition (IC50) at ncNOS (Table 2), at iNOS (Table 2) and at ecNOS (Table 2) were less than 10 µM, less than 10 µM and less than 50 µM, respectively.
Consider `Nc1cccc(Cc2ccccc2)n1` [Example 61, 2-Amino-6-benzylpyridine], for which the half-maximal inhibitory concentration (IC50) was less than 50 µM at ncNOS (Table 2), less than 50 µM on iNOS (Table 2) and greater than 50 µM at ecNOS (Table 2).
As for `Cc1cc(N)nc(CCCc2ccccc2)c1` [Example 69, 2-Amino-4-methyl-6-(3-phenylpropyl)pyridine], the IC50 on ncNOS (Table 2) is less than 10 µM; at iNOS (Table 2), less than 50 µM; on ecNOS (Table 2) it was less than 50 µM.
Regarding `COC(=O)c1cc(Cl)cc(N)n1` [Example 36, 4-Chloro-6-methoxycarbonyl-2-aminopyridine], the figures for the IC50 on ncNOS (Table 2), at iNOS (Table 2) and at ecNOS (Table 2) were greater than 50 µM, less than 50 µM and greater than 50 µM, respectively.
Regarding `Cc1cc(N)nc(CCc2ccccc2)c1` [Example 73, 2-Amino-4-methyl-6-(2-phenylethyl)pyridine], the IC50 on ncNOS (Table 2), on iNOS (Table 2) and on ecNOS (Table 2) was less than 10 µM throughout.
Take `CCc1ccc(N)nc1` [Example 60, 2-Amino-5-ethylpyridine]: the figures for the IC50 on iNOS (Table 2) and on ecNOS (Table 2) were less than 10 µM and less than 50 µM, respectively.
As to `Cc1cc(N)nc(CCO)c1` [Example 58, 2-Amino-6-(2-hydroxyethyl)-4-methylpyridine], the IC50 on ncNOS (Table 2), at iNOS (Table 2) and at ecNOS (Table 2) was less than 1 µM throughout.
Take `Nc1cc2c(cn1)CCCC2` [Example 64, 3-Amino-5,6,7,8-tetrahydroisoquinoline]: the half-inhibitory concentration (IC50) at iNOS (Table 2) was less than 10 µM.
On to `CC(C)(C)c1ccnc(N)c1` [Example 14, 2-Amino-4-tert-butylpyridine], for which, at iNOS (Table 1), the half-inhibitory concentration (IC50) is greater than 50 µM.
With `Cc1cc(N)nc(CCCCN)c1` [Example 56, 2-Amino-6-(4-aminobutyl)-4-methylpyridine], the values for the concentration for half-maximal inhibition (IC50) at ncNOS (Table 2), on iNOS (Table 2) and at ecNOS (Table 2) were less than 1 µM, less than 1 µM and less than 10 µM, respectively.
Turning to `Cc1cc(N)ncc1Cl` [Example 29, 2-Amino-5-chloro-4-picoline], the values for the IC50 at ncNOS (Table 2), on iNOS (Table 2) and at ecNOS (Table 2) were less than 50 µM, less than 10 µM and less than 50 µM, respectively.
Take `COc1cccnc1N` [Example 20, 2-Amino-3-methoxypyridine]: the values for the IC50 on ncNOS (Table 2), at iNOS (Table 2) and at ecNOS (Table 2) were less than 50 µM, greater than 50 µM and less than 50 µM, respectively.
Take `Nc1ccc(-c2ccccc2)cn1` [Example 39, 2-Amino-5-phenylpyridine]: the 50% inhibitory concentration (IC50) on iNOS (Table 2) was greater than 50 µM.
With `C=Cc1c(C)cc(N)nc1C` [Example 37, 4,6-Dimethyl-5-ethenyl-2-aminopyridine], the half-inhibitory concentration (IC50) at ncNOS (Table 2) was less than 1 µM; at iNOS (Table 2), less than 10 µM; on ecNOS (Table 2) it was less than 10 µM.
Take `CCCc1c(C)ccnc1N` [Example 26, 2-Amino-3-n-propyl-4-picoline dihydrochloride]: the 50% inhibitory concentration (IC50) on iNOS (Table 2) is less than 50 µM.
Consider `Cc1ccnc(N)c1CO` [Example 23, 2-Amino-3-hydroxymethyl-4-picoline], for which the IC50 at iNOS (Table 2) and at ecNOS (Table 2) was less than 1 µM each time.
Turning to `Nc1ccnc(N)c1` [Example 38, 2,4-Diaminopyridine dihydrochloride], the IC50 at ncNOS (Table 2) is less than 50 µM; at iNOS (Table 2), less than 10 µM; on ecNOS (Table 2), less than 50 µM.
As for `Cc1ccnc(N)c1N` [Example 17, 2,3-Diamino-4-methylpyridine], the results for the IC50 at iNOS (Table 1) and on ecNOS (Table 1) were 0.058 µM and 0.081 µM, respectively.
As to `Cc1cc(N)ncc1CN` [Example 45, 2-Amino-5-aminomethyl-4-methylpyridine dihydrochloride], the results for the IC50 on ncNOS (Table 2), on iNOS (Table 2) and at ecNOS (Table 2) were less than 50 µM, less than 10 µM and less than 10 µM, respectively.
With `Cc1cc(N)nc(CC[C@H](C)N)c1` [Example 76, (S)-2-Amino-6-(3-aminobutyl)-4-methylpyridine], the IC50 on ncNOS (Table 2) is less than 1 µM; on iNOS (Table 2) it was less than 1 µM; at ecNOS (Table 2), less than 10 µM.
For `Cc1cc(N)nc(CCCCc2ccccc2)c1` [Example 70, 2-Amino-4-methyl-6-(4-phenylbutyl)pyridine], the IC50 on ncNOS (Table 2), on iNOS (Table 2) and on ecNOS (Table 2) was less than 10 µM throughout.
For the compound `Cc1cc(N)nc(CC[C@@H](C)N)c1` [Example 77, (R)-2-Amino-6-(3-aminobutyl)-4-methylpyridine], the 50% inhibitory concentration (IC50) at ncNOS (Table 2) is less than 1 µM; at iNOS (Table 2) it was less than 10 µM; at ecNOS (Table 2) it was less than 50 µM.
Turning to `Cc1ccnc(N)c1NC(=O)NCc1ccccc1` [Example 19, 2-Amino-3-benzylurea-4-picoline], the half-maximal inhibitory concentration (IC50) at ncNOS (Table 2) is greater than 50 µM; at iNOS (Table 2) it was less than 10 µM; on ecNOS (Table 2), greater than 50 µM.
As for `Nc1ccccn1` [Example 1], the IC50 on ncNOS (Table 1) is less than 10 µM; at iNOS (Table 1), 1.4 µM; on ecNOS (Table 1), less than 10 µM.
With `Nc1ncccc1OCC[C@H](N)C(=O)O` [Example 48, 2-(2-Amino-3-pyridinoxy)-ethyl-(S)-glycine dihydrochloride], the half-inhibitory concentration (IC50) at ncNOS (Table 2) is less than 50 µM; at iNOS (Table 2), less than 50 µM; on ecNOS (Table 2) it was less than 10 µM.
On to `Cc1ccnc(N)c1Cl` [Example 28, 2-Amino-3-chloro-4-picoline], for which the IC50 on ncNOS (Table 2) is less than 10 µM; on iNOS (Table 2), less than 1 µM; at ecNOS (Table 2), less than 10 µM.
In the case of `Nc1cc(-c2ccccc2)ccn1` [Example 11], the IC50 at iNOS (Table 1) is greater than 50 µM.
On to `Cc1cc(N)ncc1CO` [Example 47, 2-Amino-5-hydroxymethyl-4-methylpyridine], for which, on iNOS (Table 2), the concentration for half-maximal inhibition (IC50) was less than 10 µM.
Regarding `Cc1cccc(N)n1` [Example 5], at ecNOS (Table 1), the concentration for half-maximal inhibition (IC50) turned out to be 0.82 µM.
For `CC(=O)Nc1cnc(N)cc1C` [Example 31, 5-Acetylamino-2-amino-4-picoline], the IC50 is less than 50 µM on ncNOS (Table 2), less than 10 µM at iNOS (Table 2) and less than 50 µM at ecNOS (Table 2).
In the case of `CCc1c(C)ccnc1N` [Example 24, 2-Amino-3-ethyl-4-picoline dihydrochloride], the 50% inhibitory concentration (IC50) on iNOS (Table 2) and at ecNOS (Table 2) was less than 10 µM throughout.
Regarding `Nc1cc(C(F)(F)F)ccn1` [Example 8], the IC50 is 13.2 µM on iNOS (Table 1) and 73 µM at ecNOS (Table 1).
Turning to `Cc1cc(C)nc(N)c1` [Example 6], the half-maximal inhibitory concentration (IC50) on iNOS (Table 1) is 0.108 µM.
With `N#Cc1ccnc(N)c1` [Example 16, 2-Amino-4-cyanopyridine], on iNOS (Table 1), the 50% inhibitory concentration (IC50) is greater than 50 µM.
For the compound `Cc1ccnc(N)c1C` [Example 13, 2-Amino-3,4-dimethylpyridine], the half-inhibitory concentration (IC50) on iNOS (Table 1) was 0.076 µM; at ecNOS (Table 1) it was less than 1 µM.
Take `Cc1cccnc1N` [Example 2]: the IC50 on iNOS (Table 1) was 3.4 µM; on ecNOS (Table 1), 1.2 µM.
Turning to `Cc1cc(N)ncc1-c1ccccc1` [Example 40, 2-Amino-4-methyl-5-phenylpyridine], the IC50 at iNOS (Table 2) was greater than 50 µM.
For `Cc1cc(N)ncc1C#N` [Example 42, 2-Amino-5-cyano-4-methylpyridine], the IC50 at iNOS (Table 2) is greater than 50 µM.
Regarding `Cc1ccnc(NCc2ccccc2)c1` [Example 18, 2-Benzylamino-4-methylpyridine], the concentration for half-maximal inhibition (IC50) at iNOS (Table 1) is 2.4 µM; on ecNOS (Table 1), less than 50 µM.
As for `Cc1ccc(N)nc1` [Example 4], the IC50 on iNOS (Table 1) is 1.3 µM; at ecNOS (Table 1), 3.1 µM.
On to `COC(=O)c1cnc(N)cc1C` [Example 44, 2-Amino-5-methoxycarbonyl-4-methylpyridine], for which, at iNOS (Table 2), the IC50 was greater than 50 µM.
